# Assay results published in patent US20260224588A1, “BENZODIAZEPINONE-DERIVED INHIBITORS OF EGFR AND HER2” (The Research Foundation for the State University of New York, priority 2023, published 2026).
# Experiments:
# Assay in all cases: KINOMEscan
# Format in all cases: binding
# Details in all cases: 1 μM of compound 4; read-out: POC
# ASK1 = ASK1 (Homo sapiens, UniProt Q99683)
# AMPK-alpha2 = AMPK-alpha2 (Homo sapiens, UniProt P54646)
# IKK-alpha = IKK-alpha (Homo sapiens, UniProt O15111)
# MRCKB = MRCKB (Homo sapiens, UniProt Q9Y5S2)
# MYLK2 = MYLK2 (Homo sapiens, UniProt Q9H1R3)
# MAP4K2 = MAP4K2 (Homo sapiens, UniProt Q12851)
# Chain of MAP4K2 (Q12851 whole entry): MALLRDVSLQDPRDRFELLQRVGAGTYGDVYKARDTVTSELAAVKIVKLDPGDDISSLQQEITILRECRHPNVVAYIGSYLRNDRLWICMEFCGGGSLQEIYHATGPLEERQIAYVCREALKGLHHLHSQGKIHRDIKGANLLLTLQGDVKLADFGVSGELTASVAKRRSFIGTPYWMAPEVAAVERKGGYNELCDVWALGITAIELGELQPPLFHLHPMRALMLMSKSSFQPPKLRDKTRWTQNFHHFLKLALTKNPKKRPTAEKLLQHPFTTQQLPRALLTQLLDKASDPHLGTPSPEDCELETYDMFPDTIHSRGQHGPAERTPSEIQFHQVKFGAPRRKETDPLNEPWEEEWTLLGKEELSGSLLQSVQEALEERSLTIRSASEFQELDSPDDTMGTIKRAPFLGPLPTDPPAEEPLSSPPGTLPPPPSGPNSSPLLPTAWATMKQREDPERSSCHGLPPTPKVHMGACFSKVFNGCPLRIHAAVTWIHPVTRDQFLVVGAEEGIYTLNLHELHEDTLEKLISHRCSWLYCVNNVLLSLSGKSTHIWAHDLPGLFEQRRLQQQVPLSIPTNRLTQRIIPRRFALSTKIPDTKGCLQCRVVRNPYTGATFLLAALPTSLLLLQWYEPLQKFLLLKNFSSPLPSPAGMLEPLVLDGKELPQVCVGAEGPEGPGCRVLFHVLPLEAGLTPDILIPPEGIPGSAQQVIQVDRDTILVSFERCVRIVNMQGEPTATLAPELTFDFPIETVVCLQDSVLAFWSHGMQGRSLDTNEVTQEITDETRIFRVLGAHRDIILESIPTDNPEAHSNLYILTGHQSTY
# CAMK1D = CAMK1D (Homo sapiens, UniProt Q8IU85)
# KIT(L576P) = KIT(L576P) (Homo sapiens, UniProt P10721, L576P)
# MELK = MELK (Homo sapiens, UniProt Q14680)
# PDPK1 = target: T1, PDPK1 (Homo sapiens, UniProt O15530)
# T1 construct: purchased Eurofins DiscoverX Corporation (KINOMEscan)
# MINK = MINK (Homo sapiens, UniProt Q8N4C8)
# MET(M1250T) = MET(M1250T) (Homo sapiens, UniProt P08581, M1250T)
# MST2 = MST2 (Homo sapiens, UniProt Q13188)
# ASK2 = ASK2 (Homo sapiens, UniProt O95382)
# NEK11 = NEK11 (Homo sapiens, UniProt Q8NG66)
# ACVRL1 = ACVRL1 (Homo sapiens, UniProt P37023)
# VPS34 = target: T2, VPS34 (Homo sapiens, UniProt Q8NEB9)
# T2 construct: purchased Eurofins DiscoverX
# MAPKAPK5 = MAPKAPK5 (Homo sapiens, UniProt Q8IW41)
# Chain of MAPKAPK5 (Q8IW41 whole entry): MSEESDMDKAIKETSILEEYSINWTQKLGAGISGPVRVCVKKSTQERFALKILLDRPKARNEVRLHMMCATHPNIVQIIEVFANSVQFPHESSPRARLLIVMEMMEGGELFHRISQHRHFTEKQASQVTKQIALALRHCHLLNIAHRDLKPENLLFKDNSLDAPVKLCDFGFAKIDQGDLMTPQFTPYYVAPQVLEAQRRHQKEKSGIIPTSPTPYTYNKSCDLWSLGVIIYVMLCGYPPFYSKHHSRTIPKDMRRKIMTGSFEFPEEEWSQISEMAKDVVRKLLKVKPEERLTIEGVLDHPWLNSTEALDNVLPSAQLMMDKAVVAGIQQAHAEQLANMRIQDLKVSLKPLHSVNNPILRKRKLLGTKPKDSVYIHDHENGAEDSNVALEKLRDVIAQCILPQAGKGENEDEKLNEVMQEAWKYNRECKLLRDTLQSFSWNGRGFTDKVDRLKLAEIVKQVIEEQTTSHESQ
# PIK3CA(E542K) = PIK3CA(E542K) (Homo sapiens, UniProt P42336, E542K)
# SRPK3 = target: T3, SRPK3 (Homo sapiens, UniProt Q9UPE1)
# T3 construct: purchased Eurofins DiscoverX (KINOMEscan service)
# PKAC-beta = PKAC-beta (Homo sapiens, UniProt P22694)
# ROCK1 = target: T4, ROCK1 (Homo sapiens, UniProt Q13464)
# T4 construct: purchased Eurofins DiscoverX Corporation (KINOMEscan screening service)
# T4 sequence (Q13464 whole entry): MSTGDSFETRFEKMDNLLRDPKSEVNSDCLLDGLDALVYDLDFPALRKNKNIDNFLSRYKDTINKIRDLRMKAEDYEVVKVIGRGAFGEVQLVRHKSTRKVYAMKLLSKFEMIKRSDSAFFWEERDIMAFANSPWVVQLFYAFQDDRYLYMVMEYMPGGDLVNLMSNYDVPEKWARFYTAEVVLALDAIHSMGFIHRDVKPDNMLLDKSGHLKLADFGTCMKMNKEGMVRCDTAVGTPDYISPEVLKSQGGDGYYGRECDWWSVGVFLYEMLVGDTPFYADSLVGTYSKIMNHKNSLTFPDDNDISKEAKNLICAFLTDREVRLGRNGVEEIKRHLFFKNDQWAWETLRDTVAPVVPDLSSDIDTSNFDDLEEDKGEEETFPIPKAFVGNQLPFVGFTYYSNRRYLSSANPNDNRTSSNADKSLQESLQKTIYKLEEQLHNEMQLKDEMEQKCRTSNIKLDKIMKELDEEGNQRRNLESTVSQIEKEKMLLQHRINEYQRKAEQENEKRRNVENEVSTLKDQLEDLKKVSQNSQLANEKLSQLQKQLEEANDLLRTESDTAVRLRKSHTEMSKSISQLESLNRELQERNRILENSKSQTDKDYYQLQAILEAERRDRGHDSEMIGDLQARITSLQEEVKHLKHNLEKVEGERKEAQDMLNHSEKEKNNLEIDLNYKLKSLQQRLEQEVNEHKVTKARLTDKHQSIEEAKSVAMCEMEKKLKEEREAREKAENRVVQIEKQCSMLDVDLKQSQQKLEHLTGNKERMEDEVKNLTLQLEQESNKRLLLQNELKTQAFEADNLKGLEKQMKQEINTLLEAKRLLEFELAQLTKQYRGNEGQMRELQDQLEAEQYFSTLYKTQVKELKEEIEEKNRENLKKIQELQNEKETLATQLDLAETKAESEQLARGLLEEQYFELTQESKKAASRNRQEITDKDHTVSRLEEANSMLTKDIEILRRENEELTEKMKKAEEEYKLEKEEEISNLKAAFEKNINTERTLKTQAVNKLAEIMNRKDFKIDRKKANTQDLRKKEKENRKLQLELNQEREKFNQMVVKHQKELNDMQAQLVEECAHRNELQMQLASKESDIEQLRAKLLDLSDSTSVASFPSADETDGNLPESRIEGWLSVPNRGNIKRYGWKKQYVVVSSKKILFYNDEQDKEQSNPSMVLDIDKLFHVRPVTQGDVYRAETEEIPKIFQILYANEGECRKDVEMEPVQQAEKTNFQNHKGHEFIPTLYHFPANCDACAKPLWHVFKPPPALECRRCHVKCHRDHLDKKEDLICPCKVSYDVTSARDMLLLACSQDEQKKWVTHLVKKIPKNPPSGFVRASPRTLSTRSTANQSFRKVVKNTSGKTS
# p38-delta = target: T5, p38-delta (Homo sapiens, UniProt O15264)
# T5 construct: purchased Eurofins DiscoverX Corporation (KINOMEscan)
# T5 sequence (O15264 whole entry): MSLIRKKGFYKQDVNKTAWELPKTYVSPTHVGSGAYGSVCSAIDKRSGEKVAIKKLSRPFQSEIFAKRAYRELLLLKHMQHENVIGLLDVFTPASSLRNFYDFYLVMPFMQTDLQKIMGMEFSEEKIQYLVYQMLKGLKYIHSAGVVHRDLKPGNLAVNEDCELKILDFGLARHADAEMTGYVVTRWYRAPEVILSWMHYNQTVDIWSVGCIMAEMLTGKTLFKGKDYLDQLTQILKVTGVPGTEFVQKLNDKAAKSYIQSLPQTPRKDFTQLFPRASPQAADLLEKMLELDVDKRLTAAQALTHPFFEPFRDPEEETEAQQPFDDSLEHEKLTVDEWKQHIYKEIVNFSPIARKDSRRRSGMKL
# TSSK1B = target: T6, TSSK1B (Homo sapiens, UniProt Q9BXA7)
# T6 construct: purchased Eurofins DiscoverX Corporation
# VEGFR2 = target: T7, VEGFR2 (Homo sapiens, UniProt P35968)
# T7 construct: purchased Eurofins DiscoverX
# CSF1R = CSF1R (Homo sapiens, UniProt P07333)
# TRKA = target: T8, TRKA (Homo sapiens, UniProt P04629)
# T8 construct: purchased Eurofins DiscoverX Corporation
# TYRO3 = target: T9, TYRO3 (Homo sapiens, UniProt Q06418)
# T9 construct: purchased Eurofins DiscoverX
# MST1R = MST1R (Homo sapiens, UniProt Q04912)
# ITK = ITK (Homo sapiens, UniProt Q08881)
# GSK3B = target: T10, GSK3B (Homo sapiens, UniProt P49841)
# T10 construct: purchased Eurofins DiscoverX Corporation
# T10 sequence (P49841 whole entry): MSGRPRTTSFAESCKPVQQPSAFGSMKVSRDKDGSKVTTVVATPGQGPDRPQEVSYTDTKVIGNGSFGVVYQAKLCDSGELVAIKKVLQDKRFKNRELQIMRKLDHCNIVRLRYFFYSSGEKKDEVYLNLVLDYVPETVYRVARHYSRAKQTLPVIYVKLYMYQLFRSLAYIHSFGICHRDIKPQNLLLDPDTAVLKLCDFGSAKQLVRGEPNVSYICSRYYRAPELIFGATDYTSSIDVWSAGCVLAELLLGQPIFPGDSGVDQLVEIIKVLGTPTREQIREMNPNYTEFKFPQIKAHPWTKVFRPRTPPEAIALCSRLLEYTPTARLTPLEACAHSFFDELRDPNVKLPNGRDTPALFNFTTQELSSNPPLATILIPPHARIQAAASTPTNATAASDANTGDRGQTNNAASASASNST
# PYK2 = target: T11, PYK2 (Homo sapiens, UniProt Q14289)
# T11 construct: purchased Eurofins DiscoverX Corporation (KINOMEscan screening service)
# CDK2 = CDK2 (Homo sapiens, UniProt P24941)
# ERK3 = target: T12, ERK3 (Homo sapiens, UniProt Q16659)
# T12 construct: purchased Eurofins DiscoverX Corporation
# EPHA2 = target: T13, EPHA2 (Homo sapiens, UniProt P29317)
# T13 construct: purchased Eurofins DiscoverX (KINOMEscan service)
# FRK = target: T14, FRK (Homo sapiens, UniProt P42685)
# T14 construct: purchased Eurofins DiscoverX Corporation
# T14 sequence (P42685 whole entry): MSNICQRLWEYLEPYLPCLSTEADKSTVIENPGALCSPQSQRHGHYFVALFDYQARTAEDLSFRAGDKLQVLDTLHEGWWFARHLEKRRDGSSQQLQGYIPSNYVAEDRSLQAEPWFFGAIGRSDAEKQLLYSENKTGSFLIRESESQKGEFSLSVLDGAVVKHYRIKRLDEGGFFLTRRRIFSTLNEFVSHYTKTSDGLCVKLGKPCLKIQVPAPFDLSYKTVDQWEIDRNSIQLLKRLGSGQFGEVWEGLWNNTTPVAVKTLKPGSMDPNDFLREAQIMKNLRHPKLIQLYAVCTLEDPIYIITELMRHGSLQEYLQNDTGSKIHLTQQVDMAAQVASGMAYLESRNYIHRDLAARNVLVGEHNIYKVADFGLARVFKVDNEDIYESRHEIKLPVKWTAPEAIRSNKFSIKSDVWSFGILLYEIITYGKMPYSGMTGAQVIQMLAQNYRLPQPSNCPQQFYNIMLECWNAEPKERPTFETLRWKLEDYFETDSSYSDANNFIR
# CASK = CASK (Homo sapiens, UniProt O14936)
# Chain of CASK (O14936 whole entry): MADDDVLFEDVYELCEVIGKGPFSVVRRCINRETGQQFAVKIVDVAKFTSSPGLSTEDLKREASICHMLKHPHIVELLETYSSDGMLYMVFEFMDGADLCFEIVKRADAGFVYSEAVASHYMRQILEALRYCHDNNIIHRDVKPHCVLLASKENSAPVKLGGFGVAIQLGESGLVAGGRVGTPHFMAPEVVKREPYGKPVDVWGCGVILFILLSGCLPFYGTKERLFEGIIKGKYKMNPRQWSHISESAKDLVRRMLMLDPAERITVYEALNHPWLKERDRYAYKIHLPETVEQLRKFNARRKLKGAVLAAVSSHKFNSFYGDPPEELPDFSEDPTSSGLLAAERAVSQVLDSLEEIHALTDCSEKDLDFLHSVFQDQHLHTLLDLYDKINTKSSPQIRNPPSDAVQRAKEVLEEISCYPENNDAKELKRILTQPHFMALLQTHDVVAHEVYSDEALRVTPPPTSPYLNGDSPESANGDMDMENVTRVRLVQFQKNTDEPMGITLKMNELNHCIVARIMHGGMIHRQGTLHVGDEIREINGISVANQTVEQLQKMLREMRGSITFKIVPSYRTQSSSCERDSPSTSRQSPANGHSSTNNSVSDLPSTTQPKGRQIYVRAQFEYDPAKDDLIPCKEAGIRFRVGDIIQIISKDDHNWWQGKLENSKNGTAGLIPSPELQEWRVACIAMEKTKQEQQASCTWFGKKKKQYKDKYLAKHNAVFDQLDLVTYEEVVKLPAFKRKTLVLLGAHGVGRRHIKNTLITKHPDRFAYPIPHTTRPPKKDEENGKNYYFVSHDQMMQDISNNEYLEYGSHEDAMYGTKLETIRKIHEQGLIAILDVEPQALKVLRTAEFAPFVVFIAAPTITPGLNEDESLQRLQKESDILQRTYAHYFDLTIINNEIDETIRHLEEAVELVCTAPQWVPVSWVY
# RIOK2 = target: T15, RIOK2 (Homo sapiens, UniProt Q9BVS4)
# T15 construct: purchased Eurofins DiscoverX Corporation (KINOMEscan screening service)
# MEK6 = MEK6 (Homo sapiens, UniProt P52564)
# RIPK1 = target: T16, RIPK1 (Homo sapiens, UniProt Q13546)
# T16 construct: purchased Eurofins DiscoverX Corporation (KINOMEscan screening service)
smiles,measurement,setting,value
"C=CC(=O)Nc1ccc(OC)c(Nc2cc(-c3[nH]c(CC)nc3-c3cccc(NC(=O)c4cccc5c4NC(=O)c4ccccc4N5)c3)ccn2)c1 [Compound 4, N-(3-(5-(2-((5-Acrylamido-2-methoxyphenyl)amino)pyridin-4-yl)-2-ethyl-1H-imidazol-4-yl)phenyl)-11-oxo-10,11-dihydro-5H-dibenzo[b,e][1,4]diazepine-9-carboxamide]",remaining binding at 1 µM,ASK1,100%
same,remaining binding at 1 µM,AMPK-alpha2,56%
same,remaining binding at 1 µM,IKK-alpha,100%
same,remaining binding at 1 µM,MRCKB,1.7%
same,remaining binding at 1 µM,MYLK2,84%
same,remaining binding at 1 µM,MAP4K2,36%
same,remaining binding at 1 µM,CAMK1D,100%
same,remaining binding at 1 µM,KIT(L576P),84%
same,remaining binding at 1 µM,MELK,100%
same,remaining binding at 1 µM,PDPK1,84%
same,remaining binding at 1 µM,MINK,10%
same,remaining binding at 1 µM,MET(M1250T),89%
same,remaining binding at 1 µM,MST2,14%
same,remaining binding at 1 µM,ASK2,100%
same,remaining binding at 1 µM,NEK11,100%
same,remaining binding at 1 µM,ACVRL1,75%
same,remaining binding at 1 µM,VPS34,84%
same,remaining binding at 1 µM,MAPKAPK5,100%
same,remaining binding at 1 µM,PIK3CA(E542K),100%
same,remaining binding at 1 µM,SRPK3,100%
same,remaining binding at 1 µM,PKAC-beta,98%
same,remaining binding at 1 µM,ROCK1,100%
same,remaining binding at 1 µM,p38-delta,100%
same,remaining binding at 1 µM,TSSK1B,95%
same,remaining binding at 1 µM,VEGFR2,100%
same,remaining binding at 1 µM,CSF1R,100%
same,remaining binding at 1 µM,TRKA,77%
same,remaining binding at 1 µM,TYRO3,32%
same,remaining binding at 1 µM,MST1R,85%
same,remaining binding at 1 µM,ITK,87%
same,remaining binding at 1 µM,GSK3B,100%
same,remaining binding at 1 µM,PYK2,100%
same,remaining binding at 1 µM,CDK2,95%
same,remaining binding at 1 µM,ERK3,100%
same,remaining binding at 1 µM,EPHA2,100%
same,remaining binding at 1 µM,FRK,20%
same,remaining binding at 1 µM,CASK,97%
same,remaining binding at 1 µM,RIOK2,83%
same,remaining binding at 1 µM,MEK6,73%
same,remaining binding at 1 µM,RIPK1,100%
